Measured values published in patent US8945632B2, “Methods and compositions for inhibiting the nuclear factor κB pathway” (Ben Gurion University of the Negev R&D Authority, priority 2010, dated 2015).

What was measured:
[1] = tested on: L428 cells; assay: XTT cell survival, NUP combined with chemotherapeutic drugs; format: cell-based, human; conditions: Bortezomib 0.9 ng/ml, same conditions, data not shown
[2] = tested on: B16 melanoma cells in C57BL/6 mice; assay: Experimental lung metastasis of B16 melanoma cells; format: in vivo; conditions: NUP 20 mg/kg or cisplatin 4 mg/kg, day 0 to day 14, lungs excised day 18
Description: C57BL/6 mice were treated with an intravenous injection of B16 melanoma cells (3*10^5 cells/[…]). […] Control animals received only vehicle. Lungs were excised on day 18. Metastatic nodules are black (FIG. 11).

SMILES | Combined effect on cell survival with NUP [1] | Number of lung metastatic nodules, single agent [2]
CC(C)C[C@H](NC(=O)[C@H](Cc1ccccc1)NC(=O)c1cnccn1)B(O)O [Bortezomib] | additive to NUP and not synergistic | 
N.N.[Cl][Pt][Cl] [cisplatin] |  | reduced the number of lung metastatic nodules
